This assay has as its system Neurospheres of the cerebral cortex and hippocampus of 2-day-old postnatal rats. The assay can be described thus: Neurosphere differentiation test (immunofluorescence with anti-GFAP / anti-MAP2 antibodies). It counts as cell-based, rat. The following applies: neurospheres grown 7 days in suspension with compound, 24 h on polylysine slides; versus basal (no compound); confocal images. On the procedure: Neurospheres of the cerebral cortex and hippocampus of 2-day-old postnatal rats were grown in suspension culture for 7 days in the presence or absence of a formula (I) compound according to the invention, after which they were transferred to slides covered with polylysine and 24 h later (once adhered) immunofluorescence analyses were performed with anti-GFAP antibodies to view the astrocyte differentiation, or with anti-MAP2 to view neuronal differentiation. The images were captured on a TCS SP2 confocal microscope (Leica Microsystems).

`O=c1sn(Cc2ccccc2)c(=O)n1Cc1ccccc1` [compound [1], 2,4-dibenzyl-[1,2,4]thiadiazolidine-3,5-dione]: the “astrocyte differentiation of cells present in isolated neurospheres (anti-GFAP immunofluorescence)” value (shortened to “astrocyte differentiation”) is “induces” and the “neuronal differentiation of cells present in isolated neurospheres (anti-MAP2 immunofluorescence)” value (shortened to “neuronal differentiation”) was “induces”.

On to `O=c1sn(-c2cccc3ccccc23)c(=O)n1Cc1ccccc1` [compound [2], 4-benzyl-2-naphthalene-1-yl-[1,2,4]thiadiazolidine-3,5-dione], for which the “astrocyte differentiation” value was “induces” and the “neuronal differentiation” value is “induces”.

With `O=c1sn(C(c2ccccc2)c2ccccc2)c(=O)n1Cc1ccccc1` [compound [3], 2-Benzhydryl-4-benzyl-[1,2,4]thiadiazolidine-3,5-dione], the “astrocyte differentiation” value was “induces” and the “neuronal differentiation” value is given as “induces”.

Turning to `O=c1sn(-c2ccc(Oc3ccccc3)cc2)c(=O)n1Cc1ccccc1` [compound [4], 4-benzyl-2-(4-phenoxy-phenyl)-[1,2,4]thiadiazolidine-3,5-dione], the “astrocyte differentiation” value is reported as “induces” and the “neuronal differentiation” value is “induces”.

The values are drawn from US20080153886A1, “Use Of Heterocyclic Compounds As Neurogenic Agents” (NEUROPHARMA, S.A., priority 2005, published 2008).
